According to patent publication US12331026B2 (NiKang Therapeutics, Inc., priority 2022, dated 2025):

Target: T1, CDK2 (Homo sapiens, UniProt P24941)
T1 construct: endogenous in cells; host or cells: OVCAR3 cells
Assay: Phospho-RB measurement in OVCAR3 cells (HTRF phospho-RB S807/811)
Assay type: cell-based
Settings: phosphorylation of RB protein at S807/811, HTRF, 24 h compound treatment, 0.3 to 10,000 nM, read-out: pRb (uM)
Outline: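 IC50 values come from four-parameter logistic fits of the DMSO-normalised 665/620 nm TR-FRET ratio for phospho-RB (S807/811). Antibody detection ran 4 h at room temperature.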

Row | Structure (SMILES) | IC50 [µM]
1 | O=S1(=O)C[C@@H]2[C@H](C1)[C@H]2Nc1nccc(-c2sc(N3C4CCC3CN(C3CCC3)C4)nc2-c2cccc(NS(=O)(=O)c3c(F)cccc3C(F)(F)F)c2F)n1 [Example 131, N-(3-(2-(3-cyclobutyl-3,8-diazabicyclo[3.2.1]octan-8-yl)-5-(2-(((1R,5S,6r)-3,3-dioxido-3-thiabicyclo[3.1.0]hexan-6-yl)amino)-pyrimidin-4-yl)thiazol-4-yl)-2-fluorophenyl)-2-fluoro-6-(trifluoromethyl)benzenesulfonamide] | 0.12
2 | O=S1(=O)CC2(CC(Nc3nccc(-c4sc(C56CC(Cl)(C5)C6)nc4-c4cccc(NS(=O)(=O)c5c(F)cccc5C(F)(F)F)c4F)n3)C2)C1 [Example 150, N-(3-(2-(3-chlorobicyclo[1.1.1]pentan-1-yl)-5-(2-((2,2-dioxido-2-thiaspiro[3.3]heptan-6-yl)amino)pyrimidin-4-yl)thiazol-4-yl)-2-fluorophenyl)-2-fluoro-6-(trifluoromethyl)benzenesulfonamide] | 0.17
3 | O=S1(=O)CC2(CC(Nc3nccc(-c4sc(N5C6CCC5CN(C5CCC(F)(F)CC5)C6)nc4-c4cccc(NS(=O)(=O)c5c(F)cccc5F)c4F)n3)C2)C1 [Example 147, N-(3-(2-(3-(4,4-difluorocyclohexyl)-3,8-diazabicyclo[3.2.1]octan-8-yl)-5-(2-((2,2-dioxido-2-thiaspiro[3.3]heptan-6-yl)amino)pyrimidin-4-yl)thiazol-4-yl)-2-fluorophenyl)-2,6-difluorobenzenesulfonamide] | 0.91
4 | O=S1(=O)C[C@@H]2[C@H](C1)[C@@H]2Nc1nccc(-c2sc(N3C4CCC3CN(C3CC(F)(F)C3)C4)nc2-c2cccc(NS(=O)(=O)c3c(F)cccc3F)c2F)n1 [Example 106, N-(3-(2-(3-(3,3-difluorocyclobutyl)-3,8-diazabicyclo[3.2.1]octan-8-yl)-5-(2-(((1R,5S,6s)-3,3-dioxido-3-thiabicyclo[3.1.0]hexan-6-yl)amino)pyrimidin-4-yl)thiazol-4-yl)-2-fluorophenyl)-2,6-difluorobenzenesulfonamide] | 0.68
5 | O=S1(=O)CC2(CC(Nc3nccc(-c4sc(N5C6CCC5CN(C5CC5)C6)nc4-c4cccc(NS(=O)(=O)c5c(F)cccc5C(F)(F)F)c4F)n3)C2)C1 [Example 82, N-(3-(2-(3-cyclopropyl-3,8-diazabicyclo[3.2.1]octan-8-yl)-5-(2-((2,2-dioxido-2-thiaspiro[3.3]heptan-6-yl)amino)pyrimidin-4-yl)thiazol-4-yl)-2-fluorophenyl)-2-fluoro-6-(trifluoromethyl)benzenesulfonamide] | 0.13
6 | C[C@@H]1CN(C)C[C@@H](C)N1c1nc(-c2cccc(NS(=O)(=O)c3c(F)cccc3F)c2F)c(-c2ccnc(NC3CC4(C3)CS(=O)(=O)C4)n2)s1 [Example 60, N-(3-(5-(2-((2,2-dioxido-2-thiaspiro[3.3]heptan-6-yl)amino)-pyrimidin-4-yl)-2-((2R,6R)-2,4,6-trimethylpiperazin-1-yl)thiazol-4-yl)-2-fluorophenyl)-2,6-difluorobenzenesulfonamide] | 0.9
7 | COc1cccc(F)c1S(=O)(=O)Nc1cccc(-c2nc(C34CC(C3)C4)sc2-c2ccnc(NC3CC4(C3)CS(=O)(=O)C4)n2)c1F [Example 55, N-(3-(2-(bicyclo[1.1.1]pentan-1-yl)-5-(2-((2,2-dioxido-2-thiaspiro[3.3]heptan-6-yl)amino)pyrimidin-4-yl)thiazol-4-yl)-2-fluorophenyl)-2-fluoro-6-methoxybenzenesulfonamide] | 1.35
8 | O=S1(=O)CC2(CC(Nc3nccc(-c4sc(N5C6CCC5CN(C5CCOC5)C6)nc4-c4cccc(NS(=O)(=O)c5c(F)cccc5F)c4F)n3)C2)C1 (stereo not drawn) [Example 44, N-(3-(5-(2-((2,2-dioxido-2-thiaspiro[3.3]heptan-6-yl)amino)-pyrimidin-4-yl)-2-(3-(tetrahydrofuran-3-yl)-3,8-diazabicyclo-[3.2.1]octan-8-yl)thiazol-4-yl)-2-fluorophenyl)-2,6-difluoro-benzenesulfonamide] | 0.66
9 | C[C@H]1COC[C@H](C)N1c1nc(-c2cccc(NS(=O)(=O)c3c(F)cccc3F)c2F)c(-c2ccnc(NC3CC4(C3)CS(=O)(=O)C4)n2)s1 [Example 4, N-(3-(2-((3S,5S)-3,5-dimethylmorpholino)-5-(2-((2,2-dioxido-2-thiaspiro[3.3]heptan-6-yl)amino)pyrimidin-4-yl)thiazol-4-yl)-2-fluorophenyl)-2,6-difluorobenzenesulfonamide] | 0.13
10 | CC1(C)CCN1c1nc(-c2cccc(NS(=O)(=O)c3c(F)cccc3C(F)(F)F)c2F)c(-c2ccnc(N[C@@H]3[C@@H]4CS(=O)(=O)C[C@@H]43)n2)s1 [Example 120, N-(3-(2-(2,2-dimethylazetidin-1-yl)-5-(2-(((1R,5S,6s)-3,3-dioxido-3-thiabicyclo[3.1.0]hexan-6-yl)amino)pyrimidin-4-yl)thiazol-4-yl)-2-fluorophenyl)-2-fluoro-6-(trifluoromethyl)benzenesulfonamide] | 0.29
11 | N#CC12CCC(CC1)N2c1nc(-c2cccc(NS(=O)(=O)c3c(F)cccc3F)c2F)c(-c2ccnc(NC3CC4(C3)CS(=O)(=O)C4)n2)s1 [Example 54, N-(3-(2-(1-cyano-7-azabicyclo[2.2.1]heptan-7-yl)-5-(2-((2,2-dioxido-2-thiaspiro[3.3]heptan-6-yl)amino)pyrimidin-4-yl)thiazol-4-yl)-2-fluorophenyl)-2,6-difluorobenzenesulfonamide] | 0.2

Molecules with a lower IC50, results first:

Row | IC50 [µM] | Structure (SMILES)
12 | 0.1 | CC1(C)CCN1c1nc(-c2cccc(NS(=O)(=O)c3c(F)cccc3F)c2F)c(-c2ccnc(N[C@H]3[C@@H]4CS(=O)(=O)C[C@@H]43)n2)s1 [Example 100, N-(3-(2-(2,2-dimethylazetidin-1-yl)-5-(2-(((1R,5S,6r)-3,3-dioxido-3-thiabicyclo[3.1.0]hexan-6-yl)amino)pyrimidin-4-yl)thiazol-4-yl)-2-fluorophenyl)-2,6-difluorobenzenesulfonamide]
13 | 0.08 | CN1CC2CCC(C1)N2c1nc(-c2cccc(NS(=O)(=O)c3c(F)cccc3C(F)(F)F)c2F)c(-c2ccnc(NC3[C@H]4CS(=O)(=O)C[C@@H]34)n2)s1 (stereo partly drawn) [Example 111, N-(3-(5-(2-(((1R,5S,6s)-3,3-dioxido-3-thiabicyclo[3.1.0]hexan-6-yl)amino)pyrimidin-4-yl)-2-(3-methyl-3,8-diazabicyclo[3.2.1]octan-8-yl)thiazol-4-yl)-2-fluorophenyl)-2-fluoro-6-(trifluoromethyl)benzenesulfonamide]
14 | 0.079 | O=S1(=O)CC2(CC(Nc3nccc(-c4sc(N5CC6CCC5CC6)nc4-c4cccc(NS(=O)(=O)c5c(F)cccc5F)c4F)n3)C2)C1 [Example 18, N-(3-(2-(2-azabicyclo[2.2.2]octan-2-yl)-5-(2-((2,2-dioxido-2-thiaspiro[3.3]heptan-6-yl)amino)pyrimidin-4-yl)thiazol-4-yl)-2-fluorophenyl)-2,6-difluorobenzenesulfonamide]
15 | 0.06 | CC1C2(CC(Nc3nccc(-c4sc(C56CC(C5)C6)nc4-c4cccc(NS(=O)(=O)c5c(F)cccc5F)c4F)n3)C2)CS1(=O)=O (stereo not drawn) [Example 153, N-(3-(2-(bicyclo[1.1.1]pentan-1-yl)-5-(2-((1-methyl-2,2-dioxido-2-thiaspiro[3.3]heptan-6-yl)amino)pyrimidin-4-yl)thiazol-4-yl)-2-fluorophenyl)-2,6-difluorobenzenesulfonamide]
16 | 0.06 | O=S1(=O)C[C@@H]2[C@H](C1)[C@H]2Nc1nccc(-c2sc(C34CCC(CC3)C4)nc2-c2cccc(NS(=O)(=O)c3c(F)cccc3F)c2F)n1 [Example 99, N-(3-(2-(bicyclo[2.2.1]heptan-1-yl)-5-(2-(((1R,5S,6r)-3,3-dioxido-3-thiabicyclo[3.1.0]hexan-6-yl)amino)pyrimidin-4-yl)thiazol-4-yl)-2-fluorophenyl)-2,6-difluorobenzenesulfonamide]
17 | 0.055 | O=S1(=O)CC2(CC(Nc3nccc(-c4sc(C56CCC(CC5)CC6)nc4-c4cccc(NS(=O)(=O)c5c(F)cccc5F)c4F)n3)C2)C1 [Example 10, N-(3-(2-(bicyclo[2.2.2]octan-1-yl)-5-(2-((2,2-dioxido-2-thiaspiro[3.3]heptan-6-yl)amino)pyrimidin-4-yl)thiazol-4-yl)-2-fluorophenyl)-2,6-difluorobenzenesulfonamide]
18 | 0.04 | CC1CN(C)CC(C)N1c1nc(-c2cccc(NS(=O)(=O)c3c(F)cccc3F)c2F)c(-c2ccnc(NC3CC4(C3)CS(=O)(=O)C4)n2)s1 (stereo not drawn) [Example 53, N-(3-(5-(2-((2,2-dioxido-2-thiaspiro[3.3]heptan-6-yl)amino)-pyrimidin-4-yl)-2-(2,4,6-trimethylpiperazin-1-yl)thiazol-4-yl)-2-fluorophenyl)-2,6-difluorobenzenesulfonamide]
19 | 0.04 | O=S1(=O)CC2C(C1)C2Nc1nccc(-c2sc(C34CC(C3)C4)nc2-c2cccc(NS(=O)(=O)c3c(F)cccc3F)c2F)n1 (stereo not drawn) [Example 93, N-(3-(2-(bicyclo[1.1.1]pentan-1-yl)-5-(2-((3,3-dioxido-3-thiabicyclo[3.1.0]hexan-6-yl)amino)pyrimidin-4-yl)thiazol-4-yl)-2-fluorophenyl)-2,6-difluorobenzenesulfonamide]
20 | 0.04 | O=S1(=O)CC2(CC(Nc3nccc(-c4sc(C56CC(F)(C5)C6)nc4-c4cccc(NS(=O)(=O)c5c(F)cccc5C(F)(F)F)c4F)n3)C2)C1 [Example 86, N-(3-(5-(2-((2,2-dioxido-2-thiaspiro[3.3]heptan-6-yl)amino)-pyrimidin-4-yl)-2-(3-fluorobicyclo[1.1.1]pentan-1-yl)thiazol-4-yl)-2-fluorophenyl)-2-fluoro-6-(trifluoromethyl)benzenesulfonamide]
21 | 0.03 | O=S1(=O)CC2C(C1)C2Nc1nccc(-c2sc(N3C4CCC3COC4)nc2-c2cccc(NS(=O)(=O)c3c(F)cccc3C(F)(F)F)c2F)n1 (stereo not drawn) [Example 112, N-(3-(2-(3-oxa-8-azabicyclo[3.2.1]octan-8-yl)-5-(2-((3,3-dioxido-3-thiabicyclo[3.1.0]hexan-6-yl)amino)pyrimidin-4-yl)thiazol-4-yl)-2-fluorophenyl)-2-fluoro-6-(trifluoromethyl)benzenesulfonamide]
